Measurements as given in patent US20120005765A1, “ANIMAL MODEL FOR PARKINSON'S DISEASE” (Saint Louis University, priority 2010, published 2012).

Columns and labels:
[1] = system: dopaminergic neurons in the substantia nigra; assay: Tyrosine hydroxylase immunohistochemistry and densitometry after DOPAL injection into substantia nigra; type: in vivo, rat
Description: Immunohistochemistry. Eighteen hours (two rats) or 5 days following the surgery the rats were anesthetized and perfused through the left ventricle of the heart with 0.1 M phosphate buffer containing 4% paraformaldehyde. The brains were removed, post-fixed for at least 4 h, sunk in 25% sucrose, and sectioned frozen at 50 pm with a sliding microtome. Adjacent series of sections were subjected to a conventional immunoperoxidase protocol using antibodies against tyrosine hydroxylase (TH; Sigma, monoclonal, made in […], used at a dilution of 1:6000), neuronal nuclear antigen (NeuN, Chemicon, Temecula, Calif., USA, made in rabbit, used at 1:20,000) or glial fibrillary acidic protein (GFAP, made in rabbit, used at 1:5000). Briefly, the sections were immersed overnight in 0.1 M Sorenson's phosphate buffer (SPB, pH 7.4) containing 0.2% Triton X-100 (SPB/Triton) and primary antibody with agitation. The following morning they were thrice rinsed in SPB/Triton and immersed for 1 h in SPB/Triton containing biotinylated secondary antibodies against the host species of the primary antibodies, used at a dilution of 1:200. The sections were again thrice rinsed in SPB/Triton and then immersed in SPB/Triton containing ABC reagents (Vector, Burlingame, Calif., USA) used at a dilution of 1:200. After further rinsing in SPB the sections were reacted with 3,3-diaminobenzidine (DAB) and hydrogen peroxide to produce an insoluble brown reaction product that was further intensified with osmium and thiocarbohydrazide as has been described. All immersions and rinses were done at room temperature. In addition, a series of sections from many of the brains was mounted and processed for Nissl staining using a standard cresyl violet staining procedure. […]
Determination of DOPAL-induced Parkinson's disease-like behavior Injections of DOPAL or ALDH1A1 antisense oligo into rat SN. […] After 5-7 weeks, rats were injected with apomorphine (0.4 mg/kg, subcutaneously) and rotational asymmetry determined in each group just prior to sacrifice. […]

Substantia Nigra Neurons = assay: Unbiased stereology of substantia nigra neurons after DOPAL injection; type: in vivo; parameters: TOTAL SNpc Neurons / TOTAL SNr Neurons / TH SNpc Neurons: dose or concentration left out as unconfirmed
Excerpt: Neuropathological Evaluation: Stereology The SN was included in 8-10 sections of all cases counted, and its total length was approximately 1.25 mm. Mean volume of the SNpc of control rats was […], while that of the SNpr was 777,696,500 m^3. Mean volume of the SNpc in the DOPAL injected rats was 264,674,833 m^3 while that of the SNpr was 760,212,500 m^3. There was no significant difference in mean volumes of SNpc or SNpr between controls and DOPAL injected rats. The inventors first counted TH immunoreactive neurons in the SNpc on the side of the DOPAL injection and compared them to those on the non-injected side. […] However, the inventors noted that numerous SNpc neurons sometimes were not stained for TH despite robust labeling of others (FIG. 3F). Thus, the inventors compared the number of Nissl stained profiles in sections immunostained with a-syn rather than TH in the SNpc's ipsilateral to the DOPAL injections to those of control rats which had received injections of a buffered saline solution into their SN's (Table 3). […] The inventors then determined whether DOPAL was toxic to neurons in the subjacent pars reticulata of the SN. The number of neurons in the SNpr of the DOPAL-injected rats was not different from the saline-injected rats (Table 3; FIG. 4C).
The effect of DOPAL injections into the substantia nigra on neurons in either the pars compacta (SNpc) or the pars reticularis (SNpr) are shown. Control animals were injected with buffered saline while experimental animals were injected with DOPAL (4 mg/800 nl). Unbiased stereology was used to assess the number of neurons (see Methods). Means (SD); n.s.=not significant.

SMILES: O=CCc1ccc(O)c(O)c1 [DOPAL, 3,4-dihydroxyphenylacetaldehyde]
- immunoreactivity of TH in the SN ipsilateral to injection ([1]; vs contralateral non-injected side): decrease
- reduction in TH immunoreactivity in the striatum ipsilateral to injection ([1]; vs contralateral non-injected side, background subtracted): 28%
- loss of TH immunoreactivity by spot density, ventrolateral striatum ipsilateral to injection ([1]; vs contralateral side): 80%
- TOTAL SNpc Neurons (Substantia Nigra Neurons; DOPAL into substantia nigra, Means (SD), control 11926 (1084)): 6879 (422)
- TH SNpc Neurons (Substantia Nigra Neurons; DOPAL into substantia nigra, Means (SD), control 11969 (3699)): 5884 (1365)
- TOTAL SNr Neurons (Substantia Nigra Neurons; DOPAL into substantia nigra, Means (SD), control 12422 (832)): 11761 (715)
- number of Nissl-stained neurons in the SNpc, less than saline-injected rats (Substantia Nigra Neurons; p=0.001): 43%
- mean number of TH immunoreactive SNpc neurons ipsilateral, less than contralateral non-injected side (Substantia Nigra Neurons; p=0.032): 50%
- number of neurons in the SNpr vs saline-injected rats (Substantia Nigra Neurons; rat, in vivo): not different
